Experimental findings from patent publication US10517964B2, “Optical imaging probes, optical imaging systems, methods of optical imaging, and methods of using optical imaging probes” (priority 2011, dated 2019) are described below.

A short description of data set [1]: radioactive OI and microPET of bone-seeking probe. Conditions: 0.5-2 h. It counts as in vivo, mice. How it is done: Bone-seeking PET probe, Na^18F, was also used for radioactive OI and microPET imaging studies to further confirm the use of optical signals from radioactive probes for molecular imaging.
(§1) Radioactive optical imaging: In vivo radioactive OI was also performed with an IVIS Spectrum system. Wavelength-resolved spectral imaging was carried out suing a 18 narrow bands emission filters set (490-850 nm). Animals were placed in a light-tight chamber under isofluorane anesthesia. Each acquisition, with or without filters, took 1-5 min for all studies. Images were acquired and analyzed using Living Image 3.0 software (Caliper life sciences, Hopkinton, Mass.). Quantification of Radioactive OI images was corrected in accordance with radionuclides' respective physical decay properties. Optical signal was normalized to photons per second per centimeter square per steradian (p/s/cm^2/sr). Identical setting was used for in vitro Radioactive OI. For in vivo imaging study, normal mice or mice bearing either C6-fluc or PC3 (n=3 for each imaging probe) were injected via tail vein with Na^18F (5.3-5.7 MBq, 140-150 μCi), [^18F]FDG (10.4-11.3 MBq, 280-305 μCi), Na^131I (2.2-2.3 MBq, 59-61 μCi), ^90YCl3 (1.8-2.0 MBq, 48-54 μCi) or ^90Y-RGD-BBN (2.6-3.3 MBq, 70-90 μCi). For [^18F]FDG imaging study, the mice were fasted overnight prior to the experiment.

Data set [2] in a line: thyroid radioactive OI and SPECT/CT. The data set is classed as in vivo, mice. The following applies: quantitative analysis of OI, 0.5-24 h.
From the text: Iodine ion can accumulate in the thyroid, and Na^123/131I has been widely used for imaging thyroid function, treating thyroid cancer and sodium iodide symporter^15-17. Therefore, we then tested the SPECT probe, Na^131I, for thyroid radioactive OI. […] High imaging signal was found in the thyroid and bladder at earlier time points postinjection (p.i.). […] At the end of OI study, the mice were sacrificed and the neck and chest areas were opened to expose the internal organs. The thyroid can be easily differentiated (FIG. 1.5d).
as §1, with “For in vivo imaging study, normal mice or mice bearing either C6-fluc or PC3 (n=3 for each imaging probe) were injected via tail vein with Na^18F (5.3-5.7 MBq, 140-150 μCi), [^18F]FDG (10.4-11.3 MBq, 280-305 μCi), Na^131I (2.2-2.3 MBq, 59-61 μCi), ^90YCl3 (1.8-2.0 MBq, 48-54 μCi) or ^90Y-RGD-BBN (2.6-3.3 MBq, 70-90 μCi). For [^18F]FDG imaging study, the mice were fasted overnight prior to the experiment.” left out

For data set [3], the system named is C6-tk cells (C6 rat glioma stably transfected with HSV-sr39tk). Put plainly: in vitro [18F]FHBG cell uptake, measured by OI and gamma counting. The following applies: 37° C., 15-120 min. It counts as cell-based. An excerpt:
This is mainly attributed to the ability of radioactive materials to produce low energy visible photons (1.2-3.1 eV, 400-1000 nm) associated with Cerenkov or Bremsstrahlung radiation (8-11). In this research study, we further evaluated the feasibility of using OI to monitor the nuclear reporter gene/reporter probe systems. HSV1-tk and [^18F]FHBG was thus chosen as a model system in this study. The C6 rat glioma cell line stably transfected with HSV-sr39tk plasmids (C6-tk) (12) was used, and the in vitro [^18F]FHBG uptakes in C6-tk cells were measured by both an IVIS optical imaging system (Caliper) and a gamma counter (Perkin Elmer). Finally, we performed in vivo imaging studies of the reporter gene/reporter probe using both OI and PET followed by a biodistribution study.
The in vitro [^18F]FHBG cell uptake study was performed as previously described with minor modifications (12). Briefly, C6-tk cells were seeded into 12-well plates at a density of 5×10^5 cells per well 12 h prior to the experiment. The C6 cell line without transfection was used as a negative control. […] Then the radioactivity of the cell suspension was measured in a gamma counter (Packard, Meriden, Conn.). The in vitro cell uptake results were expressed as the percentage of the applied activity with decay correction [see FIG. 2.1(b)]. […]

The test system of data set [4] is C6 cell line without transfection. Put plainly: in vitro [18F]FHBG cell uptake, negative control cells. It counts as cell-based, rat. The following applies: non transfected C6 cells, 37° C., 15-120 min. The procedure:
The in vitro [^18F]FHBG cell uptake study was performed as previously described with minor modifications (12). Briefly, C6-tk cells were seeded into 12-well plates at a density of 5×10^5 cells per well 12 h prior to the experiment. The C6 cell line without transfection was used as a negative control. The cells were then incubated with [^18F]FHBG ([…], 3 μCi/well) at 37° C. for 15, 30, 60 and 120 min. Tumor cells were washed 3 times with chilled phosphate buffered saline (PBS) and harvested with 0.25% trypsin/0.02% ethylenediaminetetraacetic acid (EDTA) (Invitrogen). The cell suspensions were transferred to a 96-well flat bottom black plate (Nunc) and imaged by an IVIS 200 system (Caliper). Luminescent images were taken without a filter [see FIG. 2.1(a)]. The exposure time was 5 min. Then the radioactivity of the cell suspension was measured in a gamma counter (Packard, Meriden, Conn.). The in vitro cell uptake results were expressed as the percentage of the applied activity with decay correction [see FIG. 2.1(b)]. Experiments were performed twice with triplicate samples for each time point. […] More importantly, an excellent correlation has been obtained between OI and gamma counting results [see FIG. 2.1(c), r^2>0.95]. These findings lay the foundation for further in vivo studies to validate the feasibility of using OI for monitoring the nuclear reporter gene system.

In data set [5] the test system is C6-tk tumors (HSV1-tk reporter gene). Put plainly: in vivo OI and PET imaging of mice bearing C6-tk and C6 tumors. Conditions: for tumor to normal tissue (T/N) ratio: n=6. The procedure:
All animal studies were carried out in compliance with federal and local institutional rules for the conduct of animal experimentation. Mice bearing two tumors (C6-tk and C6) were then used for in vivo studies. The C6-tk (left) and C6 (right) cells were injected contra-laterally in the dorsal shoulder region of each mouse (2×10^6 cells/mouse; athymic nude mice were purchased from Charles River Laboratories, n=6). Approximately 10 days later, when tumor size reached about 1-1.5 cm in diameter, small animal PET and OI were performed using the mice and the PET probe [^18F]FHBG. Images at 1 h and 2 h were obtained by both OI and PET. Results are shown by average radiance (photon/second/cm^2/str) for OI and percentage of injected dose per gram (% ID/g) for PET based on the method previously described (13). […] The strong signals in the lower part of the mouse body [FIG. 2.2 (a)] are due to the presence of the radioactivity in the bladder. […] At 2 h post-injection, with the elimination of [^18F]FHBG, only C6-tk tumors can be clearly visualized in both imaging modalities (see FIG. 2.2).

A short description of data set [6]: biodistribution study by OI of organs and gamma counting. It counts as in vivo, mice. The procedure: To further compare the imaging results obtained from OI and PET, biodistribution studies were conducted. Mice were sacrificed and different organs were collected at 1 h post-injection of [^18F]FHBG. OI images were obtained for these radioactive organs and quantification analysis of optical images was performed using Living Image software version 3.1 [see FIG. 2.3(a)]. Meanwhile, the radioactivity of the organs was also measured using a gamma counter after weighing, and the radioactivity uptake in the tumor and normal tissues was calculated and expressed as a percentage of the injected radioactive dose per gram of tissue (% ID/g) [see FIG. 2.3(b)].
The ratio of kidney to tumor uptake of [^18F]FHBG at 1 h was also calculated to be 2.3 vs. 1.4, for gamma counting vs. OI quantification, respectively. This discrepancy could mainly originate from the diverse optical properties of different tissues, which ultimately affects light imaging and quantification. Compared with the C6-tk tumor, the kidney contains more hemoglobin that absorbs more optical photons. Moreover, unlike high energy gamma rays, the low energy photons have very weak tissue penetrability. Light sources deeper in the tissue contribute less for the total optical signals than those closer to the surface. Therefore the kidney/tumor ratio measured by OI is lower than that obtained by gamma counting. Overall, PET has a better quantitative capability than OI. However, radioactive OI can still serve as a qualitative or semiquantitative research tool for radioactive reporter probe studies. The radioactive OI signals also have a uniquely wide wavelength of emission spectrum (9). The emissions in the near infra-red range are especially favorable for OI in living subjects. In comparison with current reporter gene imaging using BLI probes, radioactive reporter probes may offer a better option for 3D OI reconstruction.

A short description of data set [7]: radioactive OI of 90YCl3 in mice. It counts as in vivo. Conditions: various time points p.i. How it is done:
Mice injected with ^90YCl3 (1.8-2.0 MBq each) were also imaged by an IVIS Spectrum system at different time points p.i. (FIG. 1.6e). […] The results obtained by the radioactive OI also agreed well with the previously reports which measured the in vivo behavior of ^90YCl3 by biodistribution study^21.
as §1, with “For [^18F]FDG imaging study, the mice were fasted overnight prior to the experiment.” left out

Where [8] appears, read: OI, 1 h after tail vein injection.

Regarding `[18F-].[Na+]` [Na^18F], the “distribution of imaging signal” value in data set [1] was “High and consistence imaging signals were observed in the bone structures”.

As for `[131I-].[Na+]` [Na^131I], in data set [2], the thyroid uptake entry was “accumulated and maintained in the thyroid”.

On to `Nc1nc2c(ncn2CCC(CO)C[18F])c(=O)[nH]1` (stereo not drawn) [[^18F]FHBG, 9-(4-^18F-fluoro-3-[hydroxymethyl]butyl)guanine], for which the “cell uptake of [18F]FHBG” value was “rapid and high uptake” in data set [3]; “very low cell uptake” in data set [4]. For the same compound, the “tracer uptake in C6-tk tumors” value in data set [5] (setting [8]) was “C6-tk tumors can be clearly delineated”. Besides, the “tracer uptake in control C6 tumors” value in data set [5] (setting [8]) is “minimum tracer uptakes”. The “tumor to normal tissue (T/N) ratio” value in data set [5] (OI, 1 h post-injection) came to 2.6±0.5; in data set [5] (OI, 2 h post-injection) it was 5.1±1.1; in data set [5] (PET, 1 h post-injection) it was 43.2±8.4; in data set [5] (PET, 2 h post-injection), 143.0±14.8. Further, the “ratio of kidney to tumor uptake” value in data set [6] (1 h, OI quantification) was 1.4; in data set [6] (1 h, gamma counting), 2.3. Further, in data set [6] (1 h post-injection, excised organs), the “organs visible by optical imaging (biodistribution)” value was “the C6-tk tumor, the kidney, and the intestine were clearly visible”. For the same compound, the clearance route result in data set [6] (kidney vs intestine signal, 1 h) is reported as “mainly through urinary excretion”.

On to `[Cl][90Y]([Cl])[Cl]` [^90YCl3], for which, in data set [7], the tissue accumulation entry is on record as “accumulated in the liver as well as in the bone (femur)”.
